Data reported in US20200102264A1, “MARMELIN ANALOGS AND METHODS OF USE IN CANCER TREATMENT” (THE UNIVERSITY OF KANSAS, priority 2014, published 2020).
pIC50: −log10 of the molar value.

Legend:
SW480 colon cancer cells = assay: hexoseaminidase cell proliferation assay, SW480; format: cell-based
From the text: Using hexoseaminidase assay, we determined the effect of the compounds on cell proliferation. […]
Using hexoseaminidase assay, we determined the effect of the compounds on cell proliferation. […] […] […] Overall, the analogs can be used as chemotherapeutic agents against colon and pancreatic cancer.

[1] = system: PanC-1 pancreatic cancer cells; assay: hexoseaminidase cell proliferation assay, PanC-1; format: cell-based
Description: Using hexoseaminidase assay, we determined the effect of the compounds on cell proliferation. […] The IC50 value at 48 hours is below 10 μM in all the cancer cell lines.
Using hexoseaminidase assay, we determined the effect of the compounds on cell proliferation. […] The MRL16 IC50 value at 48 hours is below 0.3 μM in Colon cancer cell lines. […] Overall, the analogs can be used as chemotherapeutic agents against colon and pancreatic cancer.

HCT116 cells [2] = assay: cell cycle analysis, HCT116; format: cell-based; settings: HCT116, Table 3
HCT116 cells [3] = assay: colony formation, HCT116; format: cell-based
SW480 cells = assay: colony formation, SW480; format: cell-based
cancer stem cells = assay: colonosphere formation; format: cell-based
Description: It was also determined the analogs inhibit colonosphere formation from cancer stem cells. […] The columns are 0, 10, 25, and 50 micromolar concentrations of the compounds labeled by rows.
The effect of the compounds on colonosphere formation was determined. […] Overall, the analogs have shown they can be used as chemotherapeutic agents against colon, pancreatic and bladder cancer.

[4] = system: Cyclin D1, c-Myc, Akt phosphorylation, COX-2, VEGF; assay: western blot analysis, cancer promoting genes; format: cell-based; settings: HCT116 and SW480 cells, 48 h
Description: The pathways for apoptosis were studied to determine whether the analogs were capable of inhibiting certain aspects of the pathways. […] HCT116 and SW480 cells treated with MRL, THB, THBCD, DHB, DHBCD and CD for 48 h and performed for western blot analysis. […] It is shown that THBCD also activates caspase 8 and caspase 9. Furthermore, THB and THBCD inhibit anti-apoptotic protein Bcl2 and BclXL levels. […] HCT116 and SW480 cells treated with MRL, THB, THBCD, DHB, DHBCD and CD for 48 h and performed for western blot analysis. Furthermore, THB and THBCD inhibit phosphorylation of Akt (FIG. 3).

Notch-1, Jagged-1, Hes-1 = assay: Notch signaling-related proteins; format: cell-based; settings: two colon cancer cells
From the text: Notch signaling also plays a fundamental role in the differentiation and maintenance of stem cells. […] We next determined the effect of THB or THBCD on Notch signaling-related proteins in the two colon cancer cells.

[5] = system: Presenilin, Nicastrin, APH1 and PEN2; assay: γ-secretase complex protein expression; format: cell-based
From the text: The γ-secretase enzyme complex is made up of four proteins presenilin, nicastrin, APH-1 (anterior pharynx-defective 1), and PEN-2 (presenilin enhancer 2), all of which are essential for activity. Cleavage by the γ-secretase complex releases the Notch intracellular domain (NICD), which in turn translocates into the nucleus of the cells, interacts with the C promoter-binding factor-1 (CBF1) transcriptional cofactor and transactivates target genes, such as those in the hairy and enhancer of split (Hes) and Hes related with YRPW motif (Hey) family proteins. We determined whether the γ-secretase complex comprising of Presenilin, Nicastrin, APH1 and PEN2 is affected.

[6] = system: Mst1/2, Lats1/2, YAP1, TEAD1, 2, and 4; assay: Hippo signaling-related proteins; format: cell-based; settings: HCT116 and SW480 cell lines
From the text: The Hippo pathway regulates stem cell proliferation, self-renewal, and differentiation. YAP1 is highly expressed gene in stem cells. […] We next determined the effect of THB or THBCD on Hippo signaling-related proteins in the two colon cancer cells.

DCLK1+ HCT116 cells = assay: flow cytometric analysis of DCLK1+ cells; format: cell-based; settings: flow cytometry
DCLK1 = target: T1, DCLK1 (Homo sapiens, UniProt O15075); assay: in vitro kinase assay using recombinant DCLK1; format: biochemical; settings: recombinant DCLK1, dose dependent
T1 construct: we performed an in vitro kinase assay using recombinant DCLK1
T1 sequence (O15075 whole entry): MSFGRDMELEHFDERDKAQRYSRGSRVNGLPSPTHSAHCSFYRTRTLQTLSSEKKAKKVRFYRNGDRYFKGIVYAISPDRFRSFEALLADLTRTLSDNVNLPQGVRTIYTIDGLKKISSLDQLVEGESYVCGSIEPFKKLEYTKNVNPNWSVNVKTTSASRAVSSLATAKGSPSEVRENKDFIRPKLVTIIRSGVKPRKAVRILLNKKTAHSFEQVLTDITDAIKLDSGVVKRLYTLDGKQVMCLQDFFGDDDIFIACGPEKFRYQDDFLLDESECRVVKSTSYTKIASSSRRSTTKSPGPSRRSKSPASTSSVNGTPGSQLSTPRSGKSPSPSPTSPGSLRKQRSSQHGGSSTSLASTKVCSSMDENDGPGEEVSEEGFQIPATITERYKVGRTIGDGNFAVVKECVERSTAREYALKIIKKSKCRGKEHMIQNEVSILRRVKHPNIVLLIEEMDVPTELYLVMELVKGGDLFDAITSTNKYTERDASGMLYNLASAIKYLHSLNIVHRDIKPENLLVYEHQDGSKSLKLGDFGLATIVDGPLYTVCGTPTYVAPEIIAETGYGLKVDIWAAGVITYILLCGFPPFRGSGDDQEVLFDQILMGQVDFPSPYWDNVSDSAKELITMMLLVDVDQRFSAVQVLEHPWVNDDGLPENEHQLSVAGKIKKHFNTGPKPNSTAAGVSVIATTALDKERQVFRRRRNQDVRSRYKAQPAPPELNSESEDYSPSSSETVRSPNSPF
From the text: DCLK1 encodes a calmodulin-like kinase domain, and has homology to calmodulin kinases CAMKII and CAMKIV. We performed homology modeling and determined that THB can interact with the kinase domain with binding energy of −5.94. Furthermore we performed an in vitro kinase assay using recombinant DCLK1. […] Furthermore, THB and THBCD inhibit cancer stem cell marker DCLK1 expression in the xenograft tumors in both immunohistochemistry and western blot analysis (data not shown).

[7] = system: HCT116 colon cancer tumor xenografts; assay: HCT116 colon cancer tumor xenografts in nude mice; format: in vivo
Description: (§1) For in vivo, HCT116 cells were injected into the blanks of nude mice, after one week when there was a palpable tumor and these compounds were injected intraperitonially (5 mg/kg body weight) every day for 21 days. Tumor volumes were measured weekly. On 29th day mice were euthanized and the tumors were removed and weighed for use in histology, immunohistochemistry, and gene expression studies. Both THB and THBCD inhibited growth of the tumor. It is noted that the images of FIG. 4C are from left to right: control; THB; and THBCD.
as §1, with “DBQ” for “Both THB and THBCD”, “inhibited the” for “inhibited”, “16C” for “4C”, “control;” for “control; THB;”, “DBQ.” for “THBCD.”
FIGS. 19A and 19B show MRL 16 inhibits tumor growth, such as on colon cancer tumor xenografts. For in vivo, HCT116 cells were injected into the blanks of nude mice, after one week when there was a palpable tumor and these compounds were injected intraperitonially (2 mg/kg body weight) every day for 21 days. Tumor volumes were measured weekly. On 29th day mice were euthanized and the tumors were removed and weighed. MRL16 inhibited growth of the tumor.

[8] = intraperitoneal 5 mg/kg body weight every day for 21 days

pIC50 (SW480 colon cancer cells; SW480, 24 h): < 4.30
pIC50 (SW480 colon cancer cells; SW480, 48 h): 5.00
pIC50 (SW480 colon cancer cells; SW480, 72 h): 5.00
pIC50 (SW480 colon cancer cells; SW480, 72 h, listed as THB): 5.05
pIC50 ([1]; PanC-1, 24 h): < 4.30
pIC50 ([1]; PanC-1, 48 h): 5.00
pIC50 ([1]; PanC-1, 72 h): 5.10
expression of Presenilin, Nicastrin, APH1 and PEN2 [5]: downregulation
DCLK1 kinase activity (DCLK1): significantly reduced
Compound: O=C(N/N=C/c1ccc(O)c(O)c1O)c1cc2ccccc2cc1O [MRL THB]
G0/G1 (%) (HCT116 cells [2]): 17.2%
G2M (%) (HCT116 cells [2]): 19.7%
S (%) (HCT116 cells [2]): 28.1%
SubG0 Dead Cells (%) (HCT116 cells [2]): 29.0%
colony formation (HCT116 cells [3]): significantly inhibited colony formation
colony formation (SW480 cells): significantly inhibited colony formation
colonosphere formation (cancer stem cells): significantly inhibited colonosphere formation
COX-2 and VEGF expressions [4]: inhibit
cyclin D1 and c-Myc levels [4]: inhibit
phosphorylation of Akt [4]: inhibit
Hes-1 expression (Notch-1, Jagged-1, Hes-1): reduced expression
Notch-1 and Jagged-1 (Notch-1, Jagged-1, Hes-1): downregulated
expression of TEAD1, 2, and 4 [6]: significant downregulation
phosphorylation of Mst1/2, Lats1/2 and YAP1 [6]: significantly downregulated
DCLK1+ cells (DCLK1+ HCT116 cells): significant decrease
tumor volume [7, 8]: significantly reduced
tumor weight [7, 8]: significantly reduced
phosphorylation of Akt ([7]; tumor tissues): significantly reduced
COX-2, VEGF and cyclin D1 expression ([7]; tumor xenograft tissues, immunohistochemistry and western blot): significantly reduced
angiogenesis by CD31 staining ([7]; xenograft tumor tissues, immunohistochemistry): inhibit
DCLK1 expression ([7]; xenograft tumors, immunohistochemistry and western blot): inhibit
